Assay results reported in ChEMBL document CHEMBL1201862, “PubChem BioAssay data set” (2004).
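Method: 48-hour compound exposure of cells in 96-well plates, five concentrations, linear interpolation of endpoints. Here, GI50 denotes the concentration required for 50% inhibition of growth.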 Activity calls are given as the source filed them. Rule as the data show it: active = GI50 up to about 1.1 µM and inactive = higher.

How the values were obtained:
Assay in all cases: NCI anticancer screen, dose series, 48 h
M14 = test system: M14
DU-145 = test system: DU-145
HCC 2998 = test system: HCC 2998
SNB-75 = test system: SNB-75
BT-549 = test system: BT-549
NCI-H23 = test system: NCI-H23
MDA-MB-435 = test system: MDA-MB-435
IGROV-1 = test system: IGROV-1
UO-31 = test system: UO-31
786-0 = test system: 786-0
NCI-H226 = test system: NCI-H226
OVCAR-3 = test system: OVCAR-3
COLO 205 = test system: COLO 205
LOX IMVI = test system: LOX IMVI
SK-MEL-5 = test system: SK-MEL-5
A498 = test system: A498
SF-295 = test system: SF-295
HOP-92 = test system: HOP-92
SNB-19 = test system: SNB-19
SR = test system: SR

Measured: GI50

O=S(=O)(O)c1cc(Nc2ccnc3ccccc23)c2c(S(=O)(=O)O)cc(S(=O)(=O)O)cc2c1
inactive: M14 > 100 µM | DU-145 > 100 µM | HCC 2998 > 100 µM | SNB-75 > 100 µM | BT-549 > 100 µM | NCI-H23 > 100 µM | MDA-MB-435 > 100 µM | IGROV-1 > 100 µM | UO-31 > 100 µM | 786-0 > 100 µM | NCI-H226 > 100 µM | OVCAR-3 > 100 µM | COLO 205 > 100 µM | LOX IMVI > 100 µM | SK-MEL-5 > 100 µM | A498 > 100 µM

CC(C)CC(NP(=O)(O)OC1OC(C)C(O)C(O)C1O)C(=O)NC(Cc1c[nH]c2ccccc12)C(=O)O (stereo not given)
inactive: M14 > 100 µM | DU-145 > 100 µM | HCC 2998 > 100 µM | SNB-75 > 100 µM | BT-549 > 100 µM | NCI-H23 > 100 µM | MDA-MB-435 > 100 µM | IGROV-1 > 100 µM | UO-31 > 100 µM | 786-0 > 100 µM | NCI-H226 > 100 µM | OVCAR-3 > 100 µM | SF-295 > 100 µM | HOP-92 > 100 µM | COLO 205 > 100 µM | SNB-19 > 100 µM | SK-MEL-5 > 100 µM | A498 > 100 µM

FC1(F)SC2CCCCCCCCCCC2C1(F)F (stereo not given)
inactive: M14 39.7 µM | DU-145 31.1 µM | SNB-75 30.6 µM | BT-549 44 µM | NCI-H23 23.8 µM | MDA-MB-435 28.3 µM | IGROV-1 76 µM | UO-31 78.2 µM | 786-0 56.4 µM | NCI-H226 33.3 µM | OVCAR-3 18.5 µM | SF-295 28.6 µM | SR 67.5 µM | HOP-92 19.1 µM | COLO 205 18.6 µM | SNB-19 > 100 µM | LOX IMVI 16.4 µM | SK-MEL-5 32.9 µM

Cc1nc(NC(C)(CO)CO)nc(N/N=C/c2ccc(Cl)cc2)c1C(=O)Nc1ccc(Cl)cc1
inactive: M14 > 100 µM | DU-145 > 100 µM | HCC 2998 > 100 µM | SNB-75 > 100 µM | BT-549 > 100 µM | NCI-H23 > 100 µM | MDA-MB-435 > 100 µM | IGROV-1 > 100 µM | UO-31 > 100 µM | 786-0 > 100 µM | NCI-H226 > 100 µM | OVCAR-3 > 100 µM | SF-295 > 100 µM | SR > 10 µM | COLO 205 > 100 µM | SNB-19 > 100 µM | LOX IMVI > 100 µM

COc1cc(C2SC(=N)Nc3c2c(C)nn3C(=O)Cc2ccccc2)ccc1O (stereo not given)
inactive: M14 > 100 µM | DU-145 > 100 µM | HCC 2998 > 100 µM | SNB-75 26.8 µM | BT-549 > 100 µM | NCI-H23 > 100 µM | MDA-MB-435 > 100 µM | IGROV-1 > 100 µM | UO-31 > 100 µM | 786-0 > 100 µM | NCI-H226 > 100 µM | SF-295 > 100 µM | SR > 100 µM | COLO 205 > 100 µM | SNB-19 > 100 µM | LOX IMVI > 100 µM | SK-MEL-5 > 100 µM | A498 > 100 µM

Cc1cccc(C)c1NC(=O)/C=C/c1ccccc1
inactive: M14 > 100 µM | DU-145 > 100 µM | HCC 2998 > 100 µM | SNB-75 31.2 µM | BT-549 > 100 µM | NCI-H23 > 100 µM | MDA-MB-435 > 100 µM | 786-0 > 100 µM | NCI-H226 20.3 µM | OVCAR-3 > 100 µM | SF-295 88.5 µM | SR > 100 µM | COLO 205 > 100 µM | SNB-19 > 100 µM | LOX IMVI > 100 µM | SK-MEL-5 > 100 µM | A498 > 100 µM

O=C(Nc1ccccc1)c1cc2ccccc2c(/N=N/c2ccc([N+](=O)[O-])cc2)c1O
inactive: M14 > 100 µM | DU-145 > 100 µM | SNB-75 73.5 µM | BT-549 44.3 µM | NCI-H23 33.2 µM | MDA-MB-435 > 100 µM | IGROV-1 > 100 µM | UO-31 > 100 µM | 786-0 86.3 µM | NCI-H226 > 100 µM | OVCAR-3 70.1 µM | SF-295 38.7 µM | HOP-92 99.3 µM | COLO 205 > 100 µM | SNB-19 59.6 µM | LOX IMVI > 100 µM | SK-MEL-5 > 100 µM

COc1cc(/C=C/C(=O)CC(=O)/C=C/c2cc(OC)c(O)c(OC)c2)cc(OC)c1O
inactive: M14 8.61 µM | DU-145 7.83 µM | HCC 2998 5.37 µM | SNB-75 3.01 µM | BT-549 8.95 µM | NCI-H23 10.3 µM | MDA-MB-435 6.17 µM | IGROV-1 5.35 µM | UO-31 > 25 µM | 786-0 5.82 µM | NCI-H226 10.2 µM | OVCAR-3 6.85 µM | SF-295 9.91 µM | SR 5.53 µM | COLO 205 10.1 µM | SNB-19 7.74 µM | LOX IMVI 7.82 µM | SK-MEL-5 8.63 µM | A498 4.93 µM
